Measurements taken from US20210247386A1, “A DEVICE AND METHOD FOR DETERMINING CELL INDENTATION ACTIVITY” (TECHNION RESEARCH & DEVELOPMENT FOUNDATION LIMITED, priority 2018, published 2021).
Entries after “also recorded” stand apart in the source; their conditions may differ.

What was measured:
breast cancer cell lines = test: Gel indentation assay of breast cancer cell lines on PAM gel after Taxol treatment; assay type: cell-based, human; details: Taxol 25 μM for 1-2 hr, PAM gel with Young's modulus 2.4 kPa, versus untreated cells
Excerpt: (§1) The inventors used various commercially- or otherwise-available, human, epithelial breast and pancreatic cancer and benign cell lines (all from ATCC, Manassas, Va.). For breast cancer cells, the inventors used three cell lines: high metastatic potential (MP, MDA-MB-231) and low MP (MDA-MB-468) breast cancer cells that had been collected from lung metastases, and benign fibrocystic cells (MCF-10A) as control. In addition, the inventors used a high MP breast cancer LM2-4 cell-line that was developed by collecting twice metastasized cells from the human MDA-MB-231 cell line after being seeded in mice. […]
(§2) The inventors seeded 3×10^5 cells on each gel within the respective media, resulting in an average of 25±5 cells per field-of-view (area of 0.016 mm^2). […] The focal depth of each image was recorded independently during the experiment, following manual focusing, using an automated, computer-controlled microscope stage. […]
(§3) At each measurement time-point, locations on the gel were randomly chosen and at least 3 images were taken: (i) a DIC image of the cells on the gel, (ii) a fluorescence image of the particles embedded at the focal plane of the gel surface, and (iii) a series of fluorescence images at the lowest focal depth where particles were observed, to identify each indenting cells' depth. […]

[1] = system: pancreatic cancer cell lines; test: Gel indentation assay of pancreatic cancer cell lines on PAM gel after Taxol treatment; assay type: cell-based, human; details: Taxol 25 μM for 1-2 hr, PAM gel with Young's modulus 2.4 kPa, versus untreated cells
Excerpt: as §1, §2, §3

CC(=O)O[C@H]1C(=O)[C@@]2(C)[C@H]([C@H](OC(=O)c3ccccc3)[C@]3(O)C[C@H](OC(=O)[C@H](O)[C@@H](NC(=O)c4ccccc4)c4ccccc4)C(C)=C1C3(C)C)[C@]1(OC(C)=O)CO[C@@H]1C[C@@H]2O [Taxol, Paclitaxel]
reduction; also recorded: reduced: attained indentation depths (breast cancer cell lines) | percentage of indenting cells (breast cancer cell lines) | attained indentation depths [1] | percentage of indenting cells [1]
